According to patent US20040209246A1, “Dual reporter/dye reduction methodology for evaluating antiviral and cytotoxicity of hepatitis C virus inhibitors” (Agouron Pharmaceuticals, Inc., priority 2003, published 2004):
“And” between values parts separate entries of the source, which are not always exact repeats. Identical values can stand only once. Like-named read-outs stand apart in the source and are kept apart here.

What was measured:
[1] = test system: reporter-selectable HCV replicon BB7M4hRLuc in BB7 M4 hRLuc#10 Huh-7 cells; test: HCV replicon hRLuc reporter antiviral assay, cell line #10; type: cell-based, Hepatitis C virus; details: cell line #10, hRLuc endpoint, three days incubation
Protocol: (§1) An HCV replicon reporter assay system can be developed to determine the specific antiviral activity of inhibitors in standard dose response assays. In such assays, the reporter-selectable containing Huh-7 cells are incubated in 96 wells containing serial dilutions of test inhibitors or no inhibitor. At a specified time after incubation, the activities of the viral-encoded reporter genes are measured in the cell lines using the appropriate reporter assay methodologies. Data from the reporter gene measurements can be expressed as the percent of reporter gene activity in inhibitor-treated cells relative to that of inhibitor-free cells. An analysis of the antiviral component of such data allows for the calculation of the fifty-percent effective concentration (EC50).
In another embodiment of the invention, the dual antiviral activity/cytotoxicity reporter assay system, in conjunction with recording cytotoxicity in the same wells by the dye reduction method, can be used to determine the specific antiviral activity of inhibitors in standard dose response assays using three endpoints. In such assays, target cells containing the reporter-selectable replicon in microtiter are incubated for a desired duration of time at 37° C. and 5% CO2 with plates containing serial dilutions of test inhibitors or no inhibitor. After the incubation period, the activities of the viral and target cell-encoded reporter genes, as well as cytotoxicity by the dye reduction method, are measured using the appropriate dual reporter assay methods subsequent to the measurement of cellular proliferation by dye reduction. Data from the reporter gene and cellular proliferation measurements can be expressed as the percent of reporter gene activity or optical density (OD) reading in inhibitor-treated cells relative to that of inhibitor-free cells. […] The therapeutic index (TI), which is a measurement of the specific antiviral activity of an inhibitor, can then be calculated by dividing the cytotoxicity (CC50) by the antiviral activity (EC50).

[2] = test system: reporter-selectable HCV replicon BB7M4hRLuc in B6b Huh-7 cells; test: HCV replicon hRLuc reporter antiviral assay, dual reporter cell line B6b; type: cell-based, Hepatitis C virus; details: hRLuc endpoint, three days incubation
Protocol: as §1
In another embodiment of the invention, the dual antiviral activity/cytotoxicity reporter assay system, in conjunction with recording cytotoxicity in the same wells by the dye reduction method, can be used to determine the specific antiviral activity of inhibitors in standard dose response assays using three endpoints. In such assays, target cells containing the reporter-selectable replicon in microtiter are incubated for a desired duration of time at 37° C. and 5% CO2 with plates containing serial dilutions of test inhibitors or no inhibitor. After the incubation period, the activities of the viral and target cell-encoded reporter genes, as well as cytotoxicity by the dye reduction method, are measured using the appropriate dual reporter assay methods subsequent to the measurement of cellular proliferation by dye reduction. Data from the reporter gene and cellular proliferation measurements can be expressed as the percent of reporter gene activity or optical density (OD) reading in inhibitor-treated cells relative to that of inhibitor-free cells. An analysis of the antiviral component of such data allows for the calculation of the fifty-percent effective concentration (EC50) or ninety-percent effective concentration […] of an inhibitor. In addition, an analysis of the cytotoxicity component of the data can be used to calculate the 50% cytotoxicity concentration (CC50) of an inhibitor. The therapeutic index (TI), which is a measurement of the specific antiviral activity of an inhibitor, can then be calculated by dividing the cytotoxicity (CC50) by the antiviral activity (EC50).

[3] = test system: B6b dual reporter replicon cell line (Huh-7); test: XTT dye reduction cytotoxicity, cell line B6b; details: read-out: CC50 (XTT), three days incubation
Source text: (§2) In the current invention, two end points will be used to measure CC50 values. The first is XTT dye reduction methodology and the second is the use of the second reporter gene integrated in the nucleus of cells carrying the reporter-selectable HCV replicons. In case of both methodologies, a CC50 value will be generated from the same wells from which an EC50 value was obtained. The CC50 value would be generated by calculating % cytotoxicity of the inhibitor/compound treated wells compared to the no inhibitor/compound well resulting in generation of a dose dependent curve to obtain the value that was responsible for the death of 50% of the cells.
(§3) Cell line BB7 M4 hRLuc#10 was grown in DMEM without phenol red (catalog # 1053-028) at 10% FBS with 4 mM L-glutamine, 1×Pen-step, 1×non-essential amino acids, and 200 μg/ml G418 (all from Gibco BRL/Invitrogen). Line B6b was grown in the same media with the addition of 6 μg/ml Blasticidin (ICN Biomedicals). Experiments in these replicon lines were carried out in 96-well black wall, clear-bottom plates (Costar®; Corning Incorporated). Cells were seeded as diagrammed in the figure below at a density of 2×10^4/well in 100 μl DMEM (described above) without G418 or Blasticidin. […]
(§4) Cell line BB7 M4 hRLuc #10 contained the selectable reporter replicon BB7 M4-hRLuc, which served as an anti-viral marker, but cytotoxicity had to be measured by XTT. […]

[4] = test system: B6b dual reporter replicon cell line (Huh-7); details: read-out: CC50 (FLuc), three days incubation
Source text: as §2, §3, §4

[5] = test system: BB7 M4 hRLuc#10 replicon cell line (Huh-7); test: XTT dye reduction cytotoxicity, cell line #10; details: read-out: CC50 (XTT); cell line #10, XTT dye reduction, three days incubation
Source text: as §2, §3, §4

interferon alpha [IFN] was tested, and the EC50 [1] was 0.38 IU/ml and 0.67 IU/ml, the EC50 [2] was 0.39 IU/ml and 0.43 IU/ml and the EC90 [2] was 2.1 IU/ml and 2.6 IU/ml.

In the case of `OC[C@H]1O[C@@H](n2cnc3cc(Cl)c(Cl)cc32)[C@H](O)[C@@H]1O` [DRB, 5,6-dichlorobenzimidazole riboside], the CC50 [3] is reported as 48.7 µM and 40.4 µM, the EC90 [1] is reported as 50.2 µM and 58 µM and the EC50 ([1]; read-out: EC50) is reported as 21.5 µM and 33.2 µM. For the same compound, the CC50 [4] was 85.1 µM and 60.7 µM, the CC50 [5] was 53.6 µM and 48.7 µM and the EC50 ([2]; read-out: EC50) was 34.1 µM and 53.7 µM. For the same compound, the EC90 ([2]; read-out: EC90) was 43.5 µM and 55 µM.
